We go through 16 compounds from the OPERA property sets (Mansouri et al. 2018).

Values after ≈ are worked out from the molar mass of the structure shown.

For this data set the following is noted: 25 °C.
`Sc1ccccc1` came in with a solubility of 7.58 mM (≈ 835 µg/mL). The compound `CC1CCOC1` (stereo unspecified) showed a solubility of 1230 mM (≈ 106000 µg/mL). This solubility lies about 160-fold higher than the previous one. `CCC(C)OC` (stereo unspecified) returned a solubility of 186 mM (≈ 16400 µg/mL).

`Cc1c2ccccc2cc2c1cc(F)c1ccccc12` gave a solubility of 4.9e-05 mM (≈ 0.0127 µg/mL).

`Brc1cc(Br)cc(Br)c1`: the solubility was found to be 0.00251 mM (≈ 0.79 µg/mL).

The compound `Cc1ccc(Br)cc1` registered a solubility of 0.643 mM (≈ 110 µg/mL). In turn, `CCS` showed a solubility of 166 mM (≈ 10300 µg/mL). In turn, `CCOC(=O)CCCC(=O)OCC` showed a solubility of 46.8 mM (≈ 8810 µg/mL).

The compound `ICCI` returned a solubility of 0.606 mM (≈ 171 µg/mL). Compound `Brc1ccccc1Br` had a solubility of 0.316 mM (≈ 74.6 µg/mL). `CC(C)[C@@H](C)CO` showed a solubility of 427 mM (≈ 43600 µg/mL). Compared with the last compound, the solubility is about 1400-fold higher. As for `CCc1ccccc1Br`, the solubility came to 0.214 mM (≈ 39.5 µg/mL). In turn, `CC(C)OC=O` came in with a solubility of 235 mM (≈ 20700 µg/mL). With `C=COC1CC1`, the solubility was found to be 79.4 mM (≈ 6680 µg/mL). Consider `CCCC(C)(C)CO`, for which the solubility was determined as 33.1 mM (≈ 3850 µg/mL). Next, `CC(C)c1ccccc1Br`: 0.0646 mM (≈ 12.9 µg/mL).
